Measured values from patent US7465799B2, “Methods and compositions for selectin inhibition” (Wyeth, priority 2003, dated 2008).

Target: T1, P-selectin binding to P-selectin glycoprotein ligand-1 (PSGL-1) (Homo sapiens, UniProt P16109)
T1 construct: truncated form of human P-selectin comprised of the lectin and EGF domains (P-LE)
T1 sequence (P16109 42-198): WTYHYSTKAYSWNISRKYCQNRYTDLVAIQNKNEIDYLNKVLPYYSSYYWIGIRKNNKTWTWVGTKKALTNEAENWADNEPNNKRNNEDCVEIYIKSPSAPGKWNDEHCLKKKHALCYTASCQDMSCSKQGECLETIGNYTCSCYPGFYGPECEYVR
Test: Biacore assay: inhibition of P-selectin (P-LE) binding to PSGL-1 (SGP-3)
Details: at 1 mM
Experimental: Compounds of the invention can be assayed for selectin inhibitory activity using any of the procedures known in the art. One convenient procedure is the determination of IC50 values for inhibition of P-selectin binding to P-selectin glycoprotein ligand-1 (PSGL-1) using Biacore.
The Biacore 3000 is an instrument that uses surface plasmon resonance to detect binding of a solution phase analyte to an immobilized ligand on a sensor chip surface. The analyte sample is injected under flow using a microfluidic system. Binding of analyte to ligand causes a change in the angle of refracted light at the surface of the sensor chip, measured by the Biacore instrument in resonance units (RUs).
SGP-3 is a purified sulfoglycopeptide form of human PSGL-1 that contains the P-selectin binding determinants (See Somers et al., 2000, Cell 103, 467-479). SGP-3 was biotinylated via amine chemistry at a unique C-terminal lysine residue and immobilized on streptavidin-coated SA sensor chip. […]
The Biacore assay measures the signal in RU produced by binding of P-LE to SGP-3 in the presence and absence of inhibitors. Percent inhibition of binding is calculated by dividing the inhibited signal by the uninhibited signal subtracting this value from one then multiplying by one hundred. […] The data from this titration are plotted, RU values vs. concentration, and the IC50 is determined by extrapolation from the plot. […]

Percent inhibition of binding (positive control): 50%
SMILES: CC1(C)[C@@H](O[C@H]2O[C@H](C(=O)O)[C@@H](O)[C@H](O)[C@H]2O[C@@H]2O[C@H](C(=O)O)[C@@H](O)[C@H](O)[C@H]2O)CC[C@]2(C)[C@H]3C(=O)C=C4[C@@H]5C[C@@](C)(C(=O)O)CC[C@]5(C)CC[C@@]4(C)[C@]3(C)CC[C@@H]12 [Glycerrhizzin]
